Measurements as given in patent US5284853A, “Angiotensin II receptor blocking 2,3,6 substituted quinazolinones” (American Cyanamid Company, priority 1993, dated 1994).
Values joined by “and” are separate entries in the source; they are usually repeats but may differ in a detail not shown here. Equal values may be shown once.

How the values were obtained:
Angiotensin II Receptor = biological target: T1, Angiotensin II Receptor (Bos taurus, UniProt P25104); experiment: Receptor binding assay: competition of [^125 I](Sar^1,Ile^8)AngII binding to beef adrenal cortex microsomal membranes; conditions: 60 min, room temperature, pH 7.4
T1 construct: The brownish tissue forming the adrenal cortex is scraped off and finely minced with scissors before homogenization; tissue local slaughter house (Maxwell-Cohen); host or cells: beef adrenal cortex, microsomal membranes (100,000×g pellet)
T1 sequence (P25104 1-359): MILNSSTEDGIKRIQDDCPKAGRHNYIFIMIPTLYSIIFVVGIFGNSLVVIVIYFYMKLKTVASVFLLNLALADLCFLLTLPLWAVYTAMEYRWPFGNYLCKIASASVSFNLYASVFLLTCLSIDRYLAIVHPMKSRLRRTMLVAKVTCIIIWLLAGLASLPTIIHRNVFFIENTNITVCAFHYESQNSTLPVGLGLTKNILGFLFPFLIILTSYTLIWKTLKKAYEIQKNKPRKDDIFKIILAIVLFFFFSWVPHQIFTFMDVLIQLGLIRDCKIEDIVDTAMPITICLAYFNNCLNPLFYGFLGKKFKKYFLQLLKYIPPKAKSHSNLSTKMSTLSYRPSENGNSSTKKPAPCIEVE
Excerpt: Beef adrenals are obtained from a local slaughter house (Maxwell-Cohen). [^125 […]. 2200 Ci/mmole, is purchased from Dupont (KEN@, Boston, Mass.). All unlabeled AngII analogs, Dimethylsulfoxide (DMSO), nucleotides, bovine serum albumin (BBA) are purchased from Sigma Chemical Co., St. Louis, MO U.S.A. Approximately sixteen (16) to twenty (20) beef adrenal glands are processed as follows: fresh adrenal glands received on crushed ice are cleaned of fatty tissues and the tough membranes encapsulating the glands are removed and discarded. The brownish tissue forming the adrenal cortex is scraped off and finely minced with scissors before homogenization care is taken to avoid contamination with medullary tissue during dissection. […] Unless otherwise indicated, all subsequent operations are done at […]. […] The homogenate is centrifuged first at low speed (3,000×g) for 10 min. […] This P2 pellet is discarded and the liquid phase is carefully decanted off in clean centrifuge tubes and recentrifuged at high speed (100,000×g) for 60 min. The translucent final pellet is harvested and combined in a small volume (20-50.0 ml) of […] Tris.HCl buffer, pH 7.2. A 100 ul aliquot is withdrawn and the protein content of the preparation is determined by the Lowry's method (Lowry, O. H., Rosebrough, N. P., Parr, A. L. and Randall, R. J., Protein measurement with Folin phenol reagent. J. Biol. Chem., […], 265-275, 1951). The pelleted membrane is reconstituted in 50.0 mM Tris.HCl buffer containing 0.1 mM of phenylmethylsulfonyl fluoride (PMSF) to give approximately a protein concentration of 2.5 mg per ml of tissue suspension. […] In competition studies, experimental compounds are diluted in dimethylsulfoxide (DMSO) and added in 20 ul to wells before the introduction of tissue membranes. This concentration of DMSO is found to have no negative effects on the binding of [^125 I] ([…] to the membranes. Assays are performed in triplicate. The wells are left undisturbed for 60 min. at room temperature. Following incubation, all wells are harvested at once with a Brandel® Harvester especially designed for a 96 well plate (Brandel® Biomedical Research & Development Labs. Inc., Gaithersburg, MD, U.S.A.). The filter discs are washed with 10×1.0 ml of cold 0.9% NaCl to remove unbound ligand. Presoaking the filter sheet in 0.1% polyethyleneimine in normal saline (PEI/Saline) greatly reduces the radioactivity retained by the filter blanks. This method is routinely used. The filters are removed from the filter grid and counted in a Parkard® Cobra Gamma Counter for 1 min. (Packard Instrument Co., Downers Grove, Ill, U.S.A.). The binding data are analyzed by the non-linear interactive "LUNDON-11" program (LUNDON SOFTWARE Inc., Cleveland, OH U.S.A.).

[1] = tested on: Angiotensin II (AII) vasopressor response; experiment: AII Challenge: antagonism of the angiotensin II vasopressor response in conscious SHR; format: in vivo, Spontaneously hypertensive rats (Male okamoto-Aoki SHR); conditions: 10 mg/kg I.V.; for Average Change / Inhibition: n = 2; for Change / Control Before AII / Response After AII: per rat
Excerpt: […] Conscious Male okamoto-Aoki SHR, 16-20 weeks old, weighing approximately 330 g are purchased from Charles River Labs (Wilmington, MA). Conscious rats are restrained in a supine position with elastic tape. The area at the base of the tail is locally anesthetized by subcutaneous infiltration with 2% procaine. […] The cannula is secured, heparinized (1,000 I.U./ml), sealed and the wound is closed. The animals are placed in plastic restraining cages in an upright position. The cannula is attached to a Statham P23Db pressure transducer, and pulsatile blood pressure is recorded to 10-15 minutes with a Gould Brush recorder. (Chan et al., (Drug Development Res., 18:75-94, 1989). […] Co., St. […] […] […] […] […] A compound is considered active if at 30 mg/kg i.v. it antagonized at least 50% of the response.

[2] = AII 0.05 mcg/kg IV, 30 min post dose
[3] = AII 0.05 mcg/kg IV, 60 min post dose
[4] = AII 0.05 mcg/kg IV, 90 min post dose
[5] = AII 0.05 mcg/kg IV, 120 min post dose
[6] = AII 0.05 mcg/kg IV, 180 min post dose
[7] = AII 0.1 mcg/kg IV, 30 min post dose
[8] = AII 0.1 mcg/kg IV, 60 min post dose
[9] = AII 0.1 mcg/kg IV, 90 min post dose
[10] = AII 0.1 mcg/kg IV, 120 min post dose
[11] = AII 0.1 mcg/kg IV, 180 min post dose

SMILES: CCCCc1nc2ccc(C3CC(C(=O)OCC)=NO3)cc2c(=O)n1Cc1ccc(-c2ccccc2-c2nnn[nH]2)cc1 (stereo not drawn) [Example 26, Ethyl 5-[2-butyl-3,4-dihydro-4-oxo-3-[[2'-(lH-tetrazol-5-yl)[1,1'-biphenyl]-4-yl]-methyl]-6-cruinazo-linyl]-4,5-dihydro-3-isoxazolecarboxylate]
- IC50 (Angiotensin II Receptor): 30 nM
- Average Change [1, 2]: 15 mmhg
- Inhibition [1, 2]: 73%
- Change [1, 2]: 15 mmhg
- Control Before AII [1, 2]: 180 mmhg and 175 mmhg
- Response After AII [1, 2]: 195 mmhg and 190 mmhg
- Average Change [1, 3]: 10.5 mmhg
- Inhibition [1, 3]: 81%
- Change [1, 3]: 20 mmhg and 1 mmhg
- Control Before AII [1, 3]: 175 mmhg and 195 mmhg
- Response After AII [1, 3]: 195 mmhg and 196 mmhg
- Average Change [1, 4]: 17 mmhg
- Inhibition [1, 4]: 70%
- Change [1, 4]: 15 mmhg and 19 mmhg
- Control Before AII [1, 4]: 175 mmhg and 165 mmhg
- Response After AII [1, 4]: 190 mmhg and 184 mmhg
- Average Change [1, 5]: 20 mmhg
- Inhibition [1, 5]: 64%
- Change [1, 5]: 20 mmhg
- Control Before AII [1, 5]: 165 mmhg
- Response After AII [1, 5]: 185 mmhg
- Average Change [1, 6]: 17.5 mmhg
- Inhibition [1, 6]: 69%
- Change [1, 6]: 15 mmhg and 20 mmhg
- Control Before AII [1, 6]: 170 mmhg and 165 mmhg
- Response After AII [1, 6]: 185 mmhg
- Average Change [1, 7]: 11 mmhg
- Inhibition [1, 7]: 79%
- Change [1, 7]: 7 mmhg and 15 mmhg
- Control Before AII [1, 7]: 185 mmhg and 170 mmhg
- Response After AII [1, 7]: 192 mmhg and 185 mmhg
- Average Change [1, 8]: 12.5 mmhg
- Inhibition [1, 8]: 77%
- Change [1, 8]: 15 mmhg and 10 mmhg
- Control Before AII [1, 8]: 180 mmhg and 175 mmhg
- Response After AII [1, 8]: 195 mmhg and 185 mmhg
- Average Change [1, 9]: 15 mmhg
- Inhibition [1, 9]: 72%
- Change [1, 9]: 15 mmhg
- Control Before AII [1, 9]: 185 mmhg and 175 mmhg
- Response After AII [1, 9]: 200 mmhg and 190 mmhg
- Average Change [1, 10]: 18.5 mmhg
- Inhibition [1, 10]: 65%
- Change [1, 10]: 17 mmhg and 20 mmhg
- Control Before AII [1, 10]: 175 mmhg and 165 mmhg
- Response After AII [1, 10]: 192 mmhg and 185 mmhg
- Average Change [1, 11]: 38.5 mmhg
- Inhibition [1, 11]: 28%
- Change [1, 11]: 37 mmhg and 40 mmhg
- Control Before AII [1, 11]: 170 mmhg and 165 mmhg
- Response After AII [1, 11]: 207 mmhg and 205 mmhg
